Experimental data from publication PMC7567314 (Science (New York, N.Y.), 2020).

What was measured:
[1] = test system: untransfected HEK293 cells (adenylyl cyclase); test: Forskolin cAMP concentration-response with or without Ca2+; format: cell-based, human; settings: 0.5 mM CaCl2
[2] = target: wild-type MC4R stably expressed in HEK293 cells (Homo sapiens, UniProt P32245); format: binding; settings: 10 μM Ca2+; wild-type receptor; against 80 pM 125I-NDP-MSH
wild-type MC4R stably expressed in HEK293 cells, sequence (P32245 whole entry): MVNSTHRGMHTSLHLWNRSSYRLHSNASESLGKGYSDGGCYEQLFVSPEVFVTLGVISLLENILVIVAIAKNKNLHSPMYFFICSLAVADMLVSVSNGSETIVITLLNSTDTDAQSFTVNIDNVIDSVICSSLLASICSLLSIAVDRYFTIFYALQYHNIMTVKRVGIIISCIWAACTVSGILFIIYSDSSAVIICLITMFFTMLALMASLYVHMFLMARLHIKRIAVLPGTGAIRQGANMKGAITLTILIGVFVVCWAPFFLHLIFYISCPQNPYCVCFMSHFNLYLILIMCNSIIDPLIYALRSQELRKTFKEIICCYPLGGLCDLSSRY

Row | Molecule | Ca2+ dependence of non-receptor-mediated activation of adenylyl cyclase [1] | effect of Ca2+ on Ki [2]
1 | C=C[C@@]1(C)CC(=O)[C@]2(O)[C@@]3(C)[C@@H](O)CCC(C)(C)[C@@H]3[C@H](O)[C@H](OC(C)=O)[C@@]2(C)O1 [forskolin] | no Ca^2+ dependence | 
2 | agouti-related protein (SSRRCVRLHESCLGQQVPCCDPCATCYCRFFNAFCYCRKLGTAMNPCSRT; UniProt O00253 83-132, looked up, fragment) [AgRP] |  | only marginally lowered
